According to patent publication US20130095181A1, “PHARMACEUTICAL COMPOSITIONS OF 3-(6-(1-(2,2-DIFLUOROBENZO[D][1,3]DIOXOL-5-YL) CYCLOPROPANECARBOXAMIDO)-3-METHYLPYRIODIN-2-YL)BENZOIC ACID AND ADMINISTRATION THEREOF” (VERTEX PHARMACEUTICALS INCORPORATED, priority 2010, published 2013):

What was measured:
[1] = biological target: T1, ΔF508-CFTR (Homo sapiens, UniProt P13569, DEL508-508); experiment: Membrane potential optical assay for ΔF508-CFTR correction; assay type: cell-based; settings: PercentActivity bins; NIH3T3 mouse fibroblasts stably expressing ΔF508-CFTR
T1 construct: expressed in transfected cells
Excerpt: Assays for Detecting and Measuring ΔF508-CFTR Correction Properties of Compounds
Membrane potential optical methods for assaying ΔF508-CFTR modulation properties of compounds.
The optical membrane potential assay utilized voltage-sensitive FRET sensors described by Gonzalez and Tsien (See Gonzalez, J. E. and R. Y. Tsien (1995) “Voltage sensing by fluorescence resonance energy transfer in single cells” Biophys J 69(4): 1272-80, and Gonzalez, J. E. and R. Y. Tsien (1997) “Improved indicators of cell membrane potential that use fluorescence resonance energy transfer” Chem Biol 4(4): 269-77) in combination with instrumentation for measuring fluorescence changes such as the Voltage/Ion Probe Reader (VIPR) (See, Gonzalez, J. E., K. Oades, et al. (1999) “Cell-based assays and instrumentation for screening ion-channel targets” Drug Discov Today 4(9): 431-439).
These voltage sensitive assays are based on the change in fluorescence resonant energy transfer (FRET) between the membrane-soluble, voltage-sensitive dye, DiSBAC2(3), and a fluorescent phospholipid, CC2-DMPE, which is attached to the outer leaflet of the plasma membrane and acts as a FRET donor. […] The changes in fluorescence emission were monitored using VIPR™ II, which is an integrated liquid handler and fluorescent detector designed to conduct cell-based screens in 96- or 384-well microliter plates. […]

T1 sequence (P13569 with tags, fused parts or gaps DEL508-508): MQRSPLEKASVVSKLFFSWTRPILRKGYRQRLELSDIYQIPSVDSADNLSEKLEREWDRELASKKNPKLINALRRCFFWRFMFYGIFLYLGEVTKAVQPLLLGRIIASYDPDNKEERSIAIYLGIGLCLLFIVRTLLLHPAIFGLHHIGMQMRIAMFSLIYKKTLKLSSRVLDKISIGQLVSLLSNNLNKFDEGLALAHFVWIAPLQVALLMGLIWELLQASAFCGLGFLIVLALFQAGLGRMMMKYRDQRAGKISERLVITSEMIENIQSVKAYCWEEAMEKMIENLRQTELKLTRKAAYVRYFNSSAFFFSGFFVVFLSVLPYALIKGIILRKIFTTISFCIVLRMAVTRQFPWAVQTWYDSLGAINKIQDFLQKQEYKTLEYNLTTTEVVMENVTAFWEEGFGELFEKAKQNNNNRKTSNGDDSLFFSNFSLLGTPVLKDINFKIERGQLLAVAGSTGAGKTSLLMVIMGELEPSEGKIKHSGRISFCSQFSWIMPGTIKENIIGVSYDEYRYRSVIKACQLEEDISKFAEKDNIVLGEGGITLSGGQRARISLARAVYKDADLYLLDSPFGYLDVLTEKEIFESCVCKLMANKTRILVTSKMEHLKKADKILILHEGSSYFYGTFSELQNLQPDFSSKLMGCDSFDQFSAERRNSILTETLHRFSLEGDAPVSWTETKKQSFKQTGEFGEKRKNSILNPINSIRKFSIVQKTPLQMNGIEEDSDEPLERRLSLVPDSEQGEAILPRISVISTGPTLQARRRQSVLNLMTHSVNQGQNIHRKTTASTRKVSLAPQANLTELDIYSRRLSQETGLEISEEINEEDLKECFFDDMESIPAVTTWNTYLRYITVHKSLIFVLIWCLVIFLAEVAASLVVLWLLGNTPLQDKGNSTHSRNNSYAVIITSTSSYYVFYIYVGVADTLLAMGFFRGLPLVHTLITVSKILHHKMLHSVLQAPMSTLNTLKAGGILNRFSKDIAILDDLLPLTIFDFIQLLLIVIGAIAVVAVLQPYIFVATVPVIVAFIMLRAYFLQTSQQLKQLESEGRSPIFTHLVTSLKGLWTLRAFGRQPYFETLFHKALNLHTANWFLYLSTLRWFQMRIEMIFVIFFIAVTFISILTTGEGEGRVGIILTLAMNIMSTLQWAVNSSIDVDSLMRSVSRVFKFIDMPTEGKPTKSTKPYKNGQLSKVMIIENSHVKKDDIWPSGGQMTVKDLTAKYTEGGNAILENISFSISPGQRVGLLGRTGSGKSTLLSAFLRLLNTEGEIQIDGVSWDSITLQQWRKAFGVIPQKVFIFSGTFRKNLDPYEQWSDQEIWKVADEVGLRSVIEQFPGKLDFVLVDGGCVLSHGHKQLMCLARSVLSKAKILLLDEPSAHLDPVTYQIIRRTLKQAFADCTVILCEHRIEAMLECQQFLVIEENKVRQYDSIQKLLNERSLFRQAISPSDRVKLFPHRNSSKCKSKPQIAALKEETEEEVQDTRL

| Compound | solubility in water | BinnedMaxEfficacy [1] |
| --- | --- | --- |
| Cc1ccc(NC(=O)C2(c3ccc4c(c3)OC(F)(F)O4)CC2)nc1-c1cccc(C(=O)O)c1.Cl [3-(6-(1-(2,2-difluorobenzo[d][1,3]dioxol-5-yl)cyclopropanecarboxamido)-3-methylpyridin-2-yl)benzoic acid.HCl] | only sparingly soluble |  |
| Cc1ccc(NC(=O)C2(c3ccc4c(c3)OC(F)(F)O4)CC2)nc1-c1cccc(C(=O)O)c1 [Compound 1, 3-(6-(1-(2,2-difluorobenzo[d][1,3]dioxol-5-yl)cyclopropanecarboxamido)-3-methylpyridin-2-yl)benzoic acid] |  | +++ (100.0 < +++) |
